Assay results from patent US12319679B2, “Morpholinyl, piperazinyl, oxazepanyl and diazepanyl O-glycoprotein-2-acetamido-2-deoxy-3-d-glucopyranosidase inhibitors” (BIOGEN MA INC., priority 2018, dated 2025).

Biological target: T1, Recombinant full length human OGA enzyme (Homo sapiens, UniProt O60502)
T1 construct: Recombinant full length human OGA enzyme was purchased from Origene; purchased Origene
T1 sequence (O60502 1-916): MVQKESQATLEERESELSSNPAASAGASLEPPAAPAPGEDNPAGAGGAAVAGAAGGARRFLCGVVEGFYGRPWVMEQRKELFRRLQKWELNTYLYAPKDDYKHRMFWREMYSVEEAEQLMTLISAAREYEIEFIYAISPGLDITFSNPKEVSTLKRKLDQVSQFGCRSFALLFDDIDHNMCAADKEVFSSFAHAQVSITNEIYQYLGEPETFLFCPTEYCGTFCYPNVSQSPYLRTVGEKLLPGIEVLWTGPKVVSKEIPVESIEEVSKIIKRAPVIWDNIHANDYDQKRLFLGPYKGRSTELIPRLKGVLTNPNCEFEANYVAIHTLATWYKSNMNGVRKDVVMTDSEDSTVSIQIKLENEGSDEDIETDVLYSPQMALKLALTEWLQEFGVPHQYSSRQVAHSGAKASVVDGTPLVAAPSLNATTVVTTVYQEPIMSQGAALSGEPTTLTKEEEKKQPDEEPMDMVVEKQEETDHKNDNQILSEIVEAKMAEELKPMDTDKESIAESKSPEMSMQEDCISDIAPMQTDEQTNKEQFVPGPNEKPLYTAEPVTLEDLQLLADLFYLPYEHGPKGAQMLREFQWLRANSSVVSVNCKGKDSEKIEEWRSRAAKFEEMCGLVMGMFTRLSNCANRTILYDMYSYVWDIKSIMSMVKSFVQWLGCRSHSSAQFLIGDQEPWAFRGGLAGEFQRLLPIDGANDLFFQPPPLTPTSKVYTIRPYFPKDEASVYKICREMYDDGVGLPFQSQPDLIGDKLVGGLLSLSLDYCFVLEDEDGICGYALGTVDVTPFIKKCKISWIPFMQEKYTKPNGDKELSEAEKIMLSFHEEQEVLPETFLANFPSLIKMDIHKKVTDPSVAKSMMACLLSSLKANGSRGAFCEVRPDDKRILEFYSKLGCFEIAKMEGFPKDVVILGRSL
Assay: OGA Enzyme Inhibition Biochemical Assay
Conditions: 1 nM OGA, 100 μM 4-MUGlcNAc (Km), pH 6.4, 90 minutes at room temperature; 10-point dose-response starting from 20 μM
In short: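 Full-length human OGA (1 nM) with 100 μM 4-MUGlcNAc (Km) in McIlvaine buffer pH 6.4, 0.01% BSA, 90 min at room temperature, then quenched with glycine pH 10. Fluorescence at Ex 355/Em 460 nm; 10-point 4-fold series from 20 μM, four-parameter variable-slope fit.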

IC50: 200 nM
Compound: CC(=O)Nc1ncc(CN2CCO[C@H](Cc3cc(C)c(F)cn3)C2)s1 [Example 1-18, (R)—N-(5-((2-((5-fluoro-4-methylpyridin-2-yl)methyl)morpholino)methyl)thiazol-2-yl)acetamide]
